Reference: ChEMBL document CHEMBL1201862, “PubChem BioAssay data set” (2004)
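48-hour exposure; five concentrations; linearly interpolated endpoints. The concentration for 50% growth inhibition is given as GI50.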 Activity calls are given as the source filed them. Cut-off read from the data, not from the text of the source: active = GI50 up to about 1.1 µM and inactive = higher.

Legend:
Test in all cases: NCI-60 cell line screen, 48 h
NCI/ADR-RES = test system: NCI/ADR-RES
OVCAR-4 = test system: OVCAR-4
SF-268 = test system: SF-268
RPMI-8226 = test system: RPMI-8226
SF-539 = test system: SF-539
OVCAR-5 = test system: OVCAR-5
T47D = test system: T47D
M14 = test system: M14
SK-OV-3 = test system: SK-OV-3
COLO 205 = test system: COLO 205
KM12 = test system: KM12
NCI-H460 = test system: NCI-H460
HCT-116 = test system: HCT-116
HCC 2998 = test system: HCC 2998
IGROV-1 = test system: IGROV-1
A549 = test system: A549
OVCAR-3 = test system: OVCAR-3
NCI-H23 = test system: NCI-H23
SK-MEL-2 = test system: SK-MEL-2
MOLT-4 = test system: MOLT-4

Measured: GI50

O=C(O)CCC1(C(=O)O)CCC(=O)c2ccccc21 (stereo not given)
inactive: NCI/ADR-RES > 100 µM | OVCAR-4 > 100 µM | SF-268 > 100 µM | RPMI-8226 > 100 µM | SF-539 > 100 µM | OVCAR-5 > 100 µM | T47D > 100 µM | M14 > 100 µM | SK-OV-3 > 100 µM | COLO 205 > 100 µM | KM12 > 100 µM | NCI-H460 > 100 µM | HCT-116 > 100 µM | HCC 2998 > 100 µM | IGROV-1 > 100 µM | A549 > 100 µM | OVCAR-3 > 100 µM | NCI-H23 > 100 µM | SK-MEL-2 > 100 µM

C=C1C(=O)O[C@H]2[C@@H](O)[C@H](C)CCC[C@]3(C)O[C@H]3CC[C@@]3(C)O[C@@H]3C[C@@H]12
inactive: NCI/ADR-RES 7.73 µM | OVCAR-4 2.66 µM | SF-268 6.07 µM | RPMI-8226 2.15 µM | SF-539 6.81 µM | OVCAR-5 6.22 µM | T47D 7.66 µM | M14 6.11 µM | SK-OV-3 10.1 µM | MOLT-4 1.55 µM | COLO 205 3.01 µM | KM12 7.94 µM | HCT-116 1.75 µM | HCC 2998 4.93 µM | IGROV-1 5.24 µM | A549 9.33 µM | OVCAR-3 4.31 µM | NCI-H23 6.49 µM | SK-MEL-2 9.2 µM

Nc1ncnc2c1ncn2-c1ccc([N+](=O)[O-])cn1
inactive: NCI/ADR-RES > 100 µM | OVCAR-4 > 100 µM | SF-268 > 100 µM | RPMI-8226 > 100 µM | SF-539 > 100 µM | OVCAR-5 > 100 µM | T47D > 100 µM | M14 > 100 µM | SK-OV-3 > 100 µM | COLO 205 > 100 µM | KM12 > 100 µM | NCI-H460 > 100 µM | HCT-116 > 100 µM | HCC 2998 > 100 µM | A549 > 100 µM | OVCAR-3 > 100 µM | NCI-H23 > 100 µM | SK-MEL-2 > 100 µM

C=C(Br)COc1ccc2c(C)cc(=O)oc2c1
inactive: NCI/ADR-RES 47.4 µM | OVCAR-4 50.7 µM | SF-268 69 µM | RPMI-8226 44.6 µM | SF-539 67 µM | OVCAR-5 > 100 µM | T47D 20.2 µM | M14 > 100 µM | MOLT-4 34.4 µM | COLO 205 1.99 µM | NCI-H460 88.5 µM | HCT-116 59.3 µM | HCC 2998 95.3 µM | IGROV-1 49.3 µM | A549 61.5 µM | OVCAR-3 86.3 µM | NCI-H23 90.4 µM | SK-MEL-2 > 100 µM
active: KM12 0.319 µM

COc1ccccc1/C=C/C1=NN(c2cccc(S(=O)(=O)O)c2)C2(C1)C(Cl)C(=O)N2c1nc2ccccc2s1 (stereo not given)
inactive: NCI/ADR-RES > 100 µM | OVCAR-4 42.2 µM | SF-268 > 100 µM | RPMI-8226 19 µM | SF-539 58.2 µM | OVCAR-5 > 100 µM | T47D 12.1 µM | M14 > 75.3 µM | SK-OV-3 > 100 µM | MOLT-4 34 µM | COLO 205 88.9 µM | KM12 51.6 µM | NCI-H460 37.8 µM | HCT-116 61.9 µM | HCC 2998 > 91 µM | IGROV-1 28.5 µM | A549 71.4 µM | OVCAR-3 31.5 µM | NCI-H23 31.9 µM | SK-MEL-2 > 100 µM

CCCCCNC1=CC(=O)c2ccccc2C1=O
inactive: NCI/ADR-RES 45.3 µM | OVCAR-4 59.7 µM | SF-268 25.1 µM | RPMI-8226 > 91.8 µM | SF-539 20.6 µM | OVCAR-5 > 100 µM | T47D 27.5 µM | M14 > 62.4 µM | SK-OV-3 > 51.4 µM | MOLT-4 > 100 µM | COLO 205 79.6 µM | KM12 > 100 µM | NCI-H460 34.5 µM | HCT-116 22.9 µM | HCC 2998 > 78.2 µM | IGROV-1 33.2 µM | A549 42.8 µM | OVCAR-3 22.5 µM | NCI-H23 24.3 µM | SK-MEL-2 21.6 µM

COC(=O)C(Cc1c(C2Nc3ccccc3C2CC(NC(=O)CNC(C)=O)C(=O)OC)[nH]c2ccccc12)NC(=O)CNC(C)=O (stereo not given)
inactive: NCI/ADR-RES > 100 µM | OVCAR-4 > 100 µM | SF-268 > 100 µM | RPMI-8226 > 100 µM | SF-539 > 100 µM | OVCAR-5 > 100 µM | T47D > 100 µM | M14 > 100 µM | SK-OV-3 > 100 µM | COLO 205 > 100 µM | KM12 > 100 µM | NCI-H460 > 100 µM | HCT-116 > 100 µM | HCC 2998 > 100 µM | IGROV-1 > 100 µM | A549 > 100 µM | NCI-H23 > 100 µM | SK-MEL-2 > 86.9 µM

CC(C)CC(=O)NC(NC(C)C)(C(F)(F)F)C(F)(F)F
inactive: NCI/ADR-RES > 100 µM | OVCAR-4 > 100 µM | SF-268 > 100 µM | RPMI-8226 > 100 µM | SF-539 > 100 µM | T47D > 100 µM | MOLT-4 > 100 µM | COLO 205 > 100 µM | KM12 > 100 µM | NCI-H460 > 100 µM | HCT-116 > 100 µM | HCC 2998 > 100 µM | IGROV-1 > 100 µM | A549 > 100 µM | SK-MEL-2 > 100 µM

COc1ccc(/N=C2\C(=N/c3ccc(OC)cc3)N(c3ccccc3[N+](=O)[O-])C(=S)N2c2ccc(OC)cc2)cc1
inactive: NCI/ADR-RES > 100 µM | SF-268 > 100 µM | RPMI-8226 > 100 µM | SF-539 > 100 µM | OVCAR-5 > 100 µM | T47D 26 µM | M14 > 100 µM | SK-OV-3 > 100 µM | MOLT-4 21.8 µM | COLO 205 17.1 µM | KM12 > 100 µM | HCT-116 35.6 µM | HCC 2998 > 100 µM | IGROV-1 > 100 µM | A549 > 100 µM | OVCAR-3 > 100 µM | NCI-H23 > 100 µM | SK-MEL-2 > 100 µM

O=C(/N=S(/NC(=O)c1ccccc1)C(Cl)(Cl)Cl)c1ccccc1 (stereo not given)
inactive: NCI/ADR-RES 15.5 µM | OVCAR-4 17.4 µM | SF-268 50.2 µM | RPMI-8226 41.2 µM | SF-539 21.1 µM | OVCAR-5 22.9 µM | T47D 26.9 µM | M14 10.5 µM | SK-OV-3 > 31.6 µM | MOLT-4 6.97 µM | COLO 205 14.8 µM | KM12 > 65 µM | NCI-H460 30.5 µM | HCT-116 15.5 µM | HCC 2998 34.8 µM | IGROV-1 8.47 µM | A549 > 56.9 µM | OVCAR-3 31.2 µM | NCI-H23 12.4 µM | SK-MEL-2 31.9 µM

O=C(/C(Cl)=C/c1ccccc1)c1ccccc1
inactive: NCI/ADR-RES 3.55 µM | OVCAR-4 4.41 µM | SF-268 7.06 µM | RPMI-8226 2.33 µM | SF-539 3.03 µM | OVCAR-5 4.42 µM | T47D 4.07 µM | M14 2.28 µM | SK-OV-3 19.7 µM | MOLT-4 2.61 µM | COLO 205 2.58 µM | KM12 4.08 µM | NCI-H460 8.71 µM | HCT-116 1.21 µM | HCC 2998 6.68 µM | A549 10.9 µM | OVCAR-3 2.21 µM | NCI-H23 11.1 µM | SK-MEL-2 13.1 µM

CS/C(=N/S(=O)(=O)c1ccc(Cl)cc1)NCCCN/C(=N\S(=O)(=O)c1ccc(Cl)cc1)SC
inactive: NCI/ADR-RES 12.9 µM | OVCAR-4 3.56 µM | SF-268 9.48 µM | RPMI-8226 13.7 µM | SF-539 64 µM | OVCAR-5 25.2 µM | T47D 7.35 µM | M14 15.4 µM | SK-OV-3 31.1 µM | MOLT-4 4.8 µM | COLO 205 21.5 µM | NCI-H460 10.2 µM | HCT-116 21.6 µM | HCC 2998 22.5 µM | IGROV-1 30.4 µM | OVCAR-3 6.93 µM | SK-MEL-2 14.2 µM

CCOC(=O)[C@@H](NC(=O)OC(C)(C)C)[C@@H](O)C(=O)OCC
inactive: NCI/ADR-RES > 100 µM | OVCAR-4 > 100 µM | SF-268 > 100 µM | RPMI-8226 > 100 µM | OVCAR-5 > 100 µM | T47D > 100 µM | M14 > 100 µM | SK-OV-3 > 100 µM | MOLT-4 > 100 µM | COLO 205 > 100 µM | KM12 > 100 µM | NCI-H460 > 100 µM | HCT-116 > 100 µM | HCC 2998 62.8 µM | IGROV-1 > 100 µM | A549 > 100 µM | OVCAR-3 > 100 µM | NCI-H23 > 100 µM | SK-MEL-2 > 100 µM

CCOC(=O)[C@@H]1[C@@H]2NC(=O)N[C@@]1(C)Oc1ccccc12
inactive: NCI/ADR-RES > 100 µM | OVCAR-4 > 100 µM | SF-268 > 100 µM | RPMI-8226 > 100 µM | SF-539 > 100 µM | OVCAR-5 > 100 µM | T47D > 100 µM | M14 > 100 µM | SK-OV-3 > 100 µM | MOLT-4 > 100 µM | COLO 205 > 100 µM | KM12 > 100 µM | NCI-H460 > 100 µM | HCT-116 > 100 µM | HCC 2998 > 100 µM | IGROV-1 > 100 µM | OVCAR-3 > 100 µM | NCI-H23 > 100 µM | SK-MEL-2 > 100 µM
